Measured values taken from US8883826B2, “Alkynyl derivatives as modulators of metabotropic glutamate receptors” (Addex Pharma SA, priority 2004, dated 2014).

Target: T1, mGluR5 (Rattus norvegicus, UniProt P31424)
T1 construct: tissue Charles River Laboratories; host or cells: rat brain cortex membranes (Sprague-Dawley)
Experiment: mGluR5 binding assay ([3H]-MPEP radioligand competition)
Conditions: competition with 3 nM [3H]-MPEP, rat brain cortical membranes, 1 h at 4 °C; mean of at least three independent experiments in duplicate
Method in brief: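 Rat cortical membranes (50 μg) were incubated 1 h at 4 °C with 3 nM [3H]-MPEP and compound (0.003 nM-30 μM, 8 points) in HEPES buffer pH 7.4 with Mg2+, Ca2+ and NaCl. 30 μM MPEP defined non-specific binding, and bound label was counted after filtration. IC50 came from non-linear regression, as the mean of ≥3 experiments run in duplicate.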

T1 sequence (P31424 21-1203): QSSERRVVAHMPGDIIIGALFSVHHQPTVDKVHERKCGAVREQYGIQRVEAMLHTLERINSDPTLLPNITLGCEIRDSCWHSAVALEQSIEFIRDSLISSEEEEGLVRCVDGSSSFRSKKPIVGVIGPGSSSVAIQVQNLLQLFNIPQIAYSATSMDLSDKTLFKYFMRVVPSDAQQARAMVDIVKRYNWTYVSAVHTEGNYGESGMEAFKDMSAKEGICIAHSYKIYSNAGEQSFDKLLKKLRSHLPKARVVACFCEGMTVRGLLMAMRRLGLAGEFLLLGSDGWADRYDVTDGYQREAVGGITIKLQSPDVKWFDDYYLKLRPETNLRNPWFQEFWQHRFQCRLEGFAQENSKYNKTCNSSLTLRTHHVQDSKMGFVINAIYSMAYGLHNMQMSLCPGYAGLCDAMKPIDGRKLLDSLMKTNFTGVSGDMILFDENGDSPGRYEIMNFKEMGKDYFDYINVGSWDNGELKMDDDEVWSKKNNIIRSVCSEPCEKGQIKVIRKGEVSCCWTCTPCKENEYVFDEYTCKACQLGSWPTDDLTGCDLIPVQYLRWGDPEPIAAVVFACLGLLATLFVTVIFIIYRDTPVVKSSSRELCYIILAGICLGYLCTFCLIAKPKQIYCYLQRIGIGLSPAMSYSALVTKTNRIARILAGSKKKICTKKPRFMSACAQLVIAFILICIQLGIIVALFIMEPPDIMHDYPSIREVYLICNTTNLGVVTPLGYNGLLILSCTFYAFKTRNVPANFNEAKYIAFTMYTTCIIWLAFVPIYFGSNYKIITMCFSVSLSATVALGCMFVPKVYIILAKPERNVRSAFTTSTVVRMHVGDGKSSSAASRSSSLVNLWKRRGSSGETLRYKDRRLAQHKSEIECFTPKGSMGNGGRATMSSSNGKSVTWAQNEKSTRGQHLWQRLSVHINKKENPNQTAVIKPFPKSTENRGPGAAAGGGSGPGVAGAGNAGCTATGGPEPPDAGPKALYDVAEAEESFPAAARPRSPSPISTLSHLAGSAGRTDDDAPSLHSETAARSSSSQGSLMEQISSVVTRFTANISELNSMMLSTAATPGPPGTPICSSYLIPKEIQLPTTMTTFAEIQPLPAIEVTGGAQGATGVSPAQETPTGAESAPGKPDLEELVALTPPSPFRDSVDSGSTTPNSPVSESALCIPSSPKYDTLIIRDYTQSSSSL

IC50 [µM]	Compound
< 0.05	Cc1ccc2nn(CCC#Cc3cccc(CF)n3)nc2c1 [Example 165, 2-(4-(6-(Fluoromethyl)pyridin-2-yl)but-3-ynyl)-5-methyl-2H-benzo[d][1,2,3]triazole]
< 10	Clc1cccc(-c2noc(CCC#Cc3ccccn3)n2)c1Cl [Example 56, 2-(4-(3-(2,3-Dichlorophenyl)-1,2,4-oxadiazol-5-yl)but-1-ynyl)pyridine]
< 0.5	Cc1ccc2nn(CCC#Cc3ccccn3)nc2c1 [Example 166, 5-Methyl-2-(4-(pyridin-2-yl)but-3-ynyl)-2H-benzo[d][1,2,3]triazole]
< 0.5	CN(CCC#Cc1ccccn1)C(=O)c1c(Cl)cccc1Cl [Example 218, 2,6-Dichloro-N-methyl-N-(4-(pyridin-2-yl)but-3-ynyl)benzamide]
< 10	Fc1cc(F)c2nn(CCC#Cc3ccccn3)nc2c1 [Example 135, 4,6-Difluoro-2-(4-(pyridin-2-yl)but-3-ynyl)-2H-benzo[d][1,2,3]triazole]
< 10	CN(CCC#Cc1ccccn1)C(=O)c1cccc(F)c1F [Example 217, 2,3-Difluoro-N-methyl-N-(4-(pyridin-2-yl)but-3-ynyl)benzamide]
< 0.5	C(#Cc1ccccn1)CCn1nc2ccccc2n1 [Example 109, 2-(4-(Pyridin-2-yl)but-3-ynyl)-2H-benzo[d][1,2,3]triazole]
< 10	Nc1cccc(C#CCCn2nc3cc(F)cc(F)c3n2)n1 [Example 157, 6-(4-(4,6-Difluoro-2H-benzo[d][1,2,3]triazol-2-yl)but-1-ynyl)pyridin-2-amine]
< 0.05	Cn1ccc(C#CCCn2nc3cccc(Cl)c3n2)n1 [Example 156, 4-Chloro-2-(4-(1-methyl-1H-pyrazol-3-yl)but-3-ynyl)-2H-benzo[d][1,2,3]triazole]
< 10	Cc1ccc2oc(CCC#Cc3ccccn3)nc2c1 [Example 28, 5-Methyl-(2-(4-pyridin-2-yl)but-3-ynyl)benzo[d]oxazole]
< 10	Cc1cccc2nc(CCC#Cc3ccccn3)cn12 [Example 68, 5-Methyl-2-(4-(pyridin-2-yl)but-3-ynyl)-imidazo[1,2-a]pyridine]
< 0.05	Clc1cccc2sc(CCC#Cc3ccccn3)nc12 [Example 105, 4-Chloro-2-(4-(pyridin-2-yl)but-3-ynyl)benzo[d]thiazole]
< 0.05	Cc1cccc2nc(CCC#Cc3ccccn3)oc12 [Example 91, 7-Methyl-2-(4-(pyridin-2-yl)but-3-ynyl)benzo[d]oxazole]
< 10	Cc1nc(C#CCCc2cn3ccccc3n2)cs1 [Example 73, 2-(4-(2-Methylthiazol-4-yl)but-3-ynyl)imidazo[1,2-a]pyridine]
< 10	Oc1cccc2oc(CCC#Cc3ccccn3)nc12 [Example 70, 2-(4-(Pyridin-2-yl)but-3-ynyl)benzo[d]oxazol-4-ol]
< 10	O=c1c2ccccc2cnn1CCC#Cc1ccccn1 [Example 4, 2-(4-(Pyridin-2-yl)but-3-ynyl)phthalazin-1(2H)-one]
< 0.5	Cn1c(CCC#Cc2ccccn2)nc2cccc(Cl)c21 [Example 192, 7-Chloro-1-methyl-2-(4-(pyridin-2-yl)but-3-ynyl)-1H-benzo[d]imidazole]
< 10	Cc1ccccc1-c1cnn(CCC#Cc2cccc(CF)n2)c1 [Example 143, 2-(Fluoromethyl)-6-(4-(4-o-tolyl-1H-pyrazol-1-yl)but-1-ynyl)pyridine]
< 10	C(#Cc1ccccn1)CCn1ccc(-c2ccccc2)n1 [Example 159, 2-(4-(3-Phenyl-1H-pyrazol-1-yl)but-1-ynyl)pyridine]
< 10	O=C(NCCC#Cc1cccc(CF)n1)c1c(Cl)cccc1Cl [Example 189, 2,6-Dichloro-N-(4-(6-(fluoromethyl)pyridin-2-yl)but-3-ynyl)benzamide]
< 0.05	FCc1cccc(C#CCCn2cc3ccc(F)cc3n2)n1 [Example 151, 6-Fluoro-2-(4-(6-(fluoromethyl)pyridin-2-yl)but-3-ynyl)-2H-indazole]
< 10	CN(CCC#Cc1ccccn1)C(=O)c1ccccc1C(F)(F)F [Example 202, N-Methyl-N-(4-(pyridin-2-yl)but-3-ynyl)-2-(trifluoromethyl)benzamide]
< 10	Cc1ccccc1-c1cnn(CCC#Cc2ccccn2)c1 [Example 142, 2-(4-(4-o-Tolyl-1H-pyrazol-1-yl)but-1-ynyl)pyridine]
< 0.05	FCc1cccc(C#CCCc2cn3cccc(Br)c3n2)n1 [Example 225, 8-Bromo-2-(4-(6-(fluoromethyl)pyridin-2-yl)but-3-ynyl)-imidazo[1,2-a]pyridine]
< 10	Cc1nc(C#CCCn2nc3cccc(Cl)c3n2)cn1C [Example 176, 4-Chloro-2-(4-(1,2-dimethyl-1H-imidazol-4-yl)but-3-ynyl)-2H-benzo[d][1,2,3]triazole]

IC50 [µM]	Compound
< 10	CN(CCC#Cc1ccccn1)C(=O)c1ccccc1Cl [Example 204, 2-Chloro-N-methyl-N-(4-(pyridin-2-yl)but-3-ynyl)benzamide]
< 0.05	Cc1cccc2sc(CCC#Cc3ccccn3)nc12 [Example 103, 4-Methyl-2-(4-(pyridin-2-yl)but-3-ynyl)benzo[d]thiazole]
< 0.05	Fc1ccc(Cl)c2sc(CCC#Cc3ccccn3)nc12 [Example 116, 7-Chloro-4-fluoro-2-(4-(pyridin-2-yl)but-3-ynyl)benzo[d]thiazole]
< 10	Cn1c(CCC#Cc2cccc(CF)n2)nc2cccc(Cl)c21 [Example 191, 7-Chloro-2-(4-(6-(fluoromethyl)pyridin-2-yl)but-3-ynyl)-1-methyl-1H-benzo[d]imidazole]
< 10	C(#Cc1ccncn1)CCc1nc2ccccc2o1 [Example 98, 2-(4-(Pyrimidin-4-yl)but-3-ynyl)benzo[d]oxazole]
< 10	O=c1c2ccccc2cnn1CCCCC#Cc1ccccn1 [Example 243, 2-(6-(Pyridin-2-yl)hex-5-ynyl)phthalazin-1(2H)-one]
< 10	Cc1cccc(Cl)c1-c1noc(CCC#Cc2ccccn2)n1 [Example 58, 2-(4-(3-(2-Chloro-6-methylphenyl)-1,2,4-oxadiazol-5-yl)but-1-ynyl)pyridine]
< 10	Cc1noc(C)c1S(=O)(=O)N(C)CCC#Cc1ccccn1 [Example 219, N,3,5-Trimethyl-N-(4-(pyridin-2-yl)but-3-ynyl)isoxazole-4-sulfonamide]
< 10	Clc1ccc(Cl)c(-c2noc(CCC#Cc3ccccn3)n2)c1 [Example 53, 2-(4-(3-(2,5-Dichlorophenyl)-1,2,4-oxadiazol-5-yl)but-1-ynyl)pyridine]
< 10	Cc1ccccc1Cc1noc(CCC#Cc2ccccn2)n1 [Example 18, 2-(4-(3-(2-Methylbenzyl)-1,2,4-oxadiazol-5-yl)but-1-ynyl)pyridine]
< 10	C(#Cc1ccc2ccccc2n1)CCc1ccccc1 [Example 5, 2-(4-Phenylbut-1-ynyl)quinoline]
< 10	Cc1cccc(C(=O)N(C)CCC#Cc2ccccn2)c1 [Example 215, N,3-Dimethyl-N-(4-(pyridin-2-yl)but-3-ynyl)benzamide]
< 10	Fc1ccc(-c2ccnn2CCC#Cc2ccccn2)cc1 [Example 171, 2-(4-(5-(4-Fluorophenyl)-1H-pyrazol-1-yl)but-1-ynyl)pyridine]
< 10	CCCCc1noc(CCC#Cc2ccccn2)n1 [Example 22, 2-(4-(3-Butyl-1,2,4-oxadiazol-5-yl)but-1-ynyl)pyridine]
< 0.05	C(#Cc1ccccn1)CCc1cn2ccccc2n1 [Example 33, 2-(4-(Pyridin-2-yl)but-3-ynyl)-imidazo[1,2-a]pyridine]
< 10	C(#Cc1ccccn1)CCc1nc(Cc2ccccc2)no1 [Example 16, 2-(4-(3-Benzyl-1,2,4-oxadiazol-5-yl)but-1-ynyl)pyridine]
< 10	Clc1cccc(-c2noc(CCC#Cc3ccccn3)n2)c1 [Example 46, 2-(4-(3-(3-Chlorophenyl)-1,2,4-oxadiazol-5-yl)but-1-ynyl)pyridine]
< 10	Fc1cccnc1C#CCCn1nc2ccccc2n1 [Example 138, 2-(4-(3-Fluoropyridin-2-yl)but-3-ynyl)-2H-benzo[d][1,2,3]triazole]
< 10	CC(C)n1c(CCC#Cc2ccccn2)nc2ccccc21 [Example 194, 1-Isopropyl-2-(4-(pyridin-2-yl)but-3-ynyl)-1H-benzo[d]imidazole]
< 10	C(#Cc1ccccn1)CCc1nc2c(-c3ccccc3)cccc2o1 [Example 87, 4-Phenyl-2-(4-(pyridin-2-yl)but-3-ynyl)benzo[d]oxazole]
< 0.05	Fc1ccc2sc(CCC#Cc3ccccn3)nc2c1 [Example 104, 5-Fluoro-2-(4-(pyridin-2-yl)but-3-ynyl)benzo[d]thiazole]
< 10	Fc1ccc(Cc2noc(CCC#Cc3ccccn3)n2)cc1 [Example 19, 2-(4-(3-(4-Fluorobenzyl)-1,2,4-oxadiazol-5-yl)but-1-ynyl)pyridine]
< 10	Cc1ccc(Cl)c2sc(CCC#Cc3ccccn3)nc12 [Example 100, 7-Chloro-4-methyl-2-(4-(pyridin-2-yl)but-3-ynyl)benzo[d]thiazole]
< 0.05	FCc1cccc(C#CCCn2nc3ccc(F)cc3n2)n1 [Example 139, 5-Fluoro-2-(4-(6-(fluoromethyl)pyridin-2-yl)but-3-ynyl)-2H-benzo[d][1,2,3]triazole]
< 10	FCc1cccc(C#CCCn2cc3ccccc3n2)n1 [Example 133, 2-(4-(6-(Fluoromethyl)pyridin-2-yl)but-3-ynyl)-2H-indazole]

Compound	IC50 [µM]
2-(4-(3-Methyl-4-phenyl-1H-pyrazol-1-yl)but-1-ynyl)pyridine and 2-(4-(5-methyl-4-phenyl-1H-pyrazol-1-yl)but-1-ynyl)pyridine [Example 174]	< 10
